# Results taken from patent US8921385B2, “5-substituted quinazolinone derivatives and compositions comprising and methods of using the same” (Celgene Corporation, priority 2006, dated 2014).
# Where a name gives a salt, the structure may show the parent alone.
row,Compound,melting point
1,Cc1nc2cccc(CN)c2c(=O)n1C1CCC(=O)NC1=O.Cl (centres unmarked),256 °C (dec.)
2,"Cc1nc2cccc(NC(=O)CN(C)C)c2c(=O)n1C1CCC(=O)NC1=O (centres unmarked) (as salt: chloride) [Example 6.25, 2-Dimethylamino-N-[3-(2,6-Dioxo-Piperidin-3-yl)-2-Methyl-4-Oxo-3,4-Dihydro-Quinazolin-5-yl]-Acetamide Hydrogen Chloride]",256 to 258 °C
3,"Cc1cccc2ncn(C3CCC(=O)NC3=O)c(=O)c12 (centres unmarked) [Example 6.1, 3-(5-Methyl-4-Oxo-4H-Quinazolin-3-yl)-Piperidine-2,6-Dione]",262 to 264 °C
4,"Cc1cccc2nc(C)n(C3CCC(=O)NC3=O)c(=O)c12 (centres unmarked) [Example 6.2, 3-(2,5-Dimethyl-4-Oxo-4H-Quinazolin-3-yl)-Piperidine-2,6-Dione]",292 to 294 °C
5,"Cc1cccc2nc(O)n(C3CCC(=O)NC3=O)c(=O)c12 (centres unmarked) [Example 6.5, 3-(2-Hydroxy-5-Methyl-4-Oxo-4H-Quinazolin-3-yl)-Piperidine-2,6-Dione]",373 to 375 °C
6,"Cc1cccc2nc(C)n([C@@]3(C)CCC(=O)NC3=O)c(=O)c12 [Example 6.7, 3R-3-(2,5-Dimethyl-4-Oxo-4H-Quinazolin-3-yl)-3-Methyl-Piperidine-2,6-Dione]",298 to 301 °C
7,"COc1cccc2nc(C)n(C3CCC(=O)NC3=O)c(=O)c12 (centres unmarked) [Example 6.8, 3-(5-Methoxy-2-Methyl-4-Oxo-4H-Quinazolin-3-yl)-Piperidine-2,6-Dione]",274 to 276 °C
8,"Cc1nc2cccc(Cl)c2c(=O)n1C1CCC(=O)NC1=O (centres unmarked) [Example 6.10, 3-(5-Chloro-2-Methyl-4-Oxo-4H-Quinazolin-3-yl)-Piperidine-2,6-Dione]",315 °C (dec.)
9,"Cc1nc2cccc(C(F)(F)F)c2c(=O)n1C1CCC(=O)NC1=O (centres unmarked) [Example 6.11, 3-(2-Methyl-4-Oxo-5-Trifluoromethyl-4H-Quinazolin-3-yl)-Piperidine-2,6-Dione]",268 to 270 °C
10,"O=C1CCC(n2cnc3cccc(Cl)c3c2=O)C(=O)N1 (centres unmarked) [Example 6.12, 3-(5-Chloro-4-Oxo-4H-Quinazolin-3-yl)-Piperidine-2,6-Dione]",308 to 310 °C
11,"CCc1nc2cccc(C)c2c(=O)n1C1CCC(=O)NC1=O (centres unmarked) [Example 6.13, 3-(2-Ethyl-5-Methyl-4-Oxo-4H-Quinazolin-3-yl)-Piperidine-2,6-Dione]",228 to 230 °C
12,"CCCCc1nc2cccc(C)c2c(=O)n1C1CCC(=O)NC1=O (centres unmarked) [Example 6.14, 3-(2-Butyl-5-Methyl-4-Oxo-4H-Quinazolin-3-yl)-Piperidine-2,6-Dione]",190 to 192 °C
13,"Cc1cccc2nc(C(F)(F)F)n(C3CCC(=O)NC3=O)c(=O)c12 (centres unmarked) [Example 6.15, 3-(5-Methyl-4-Oxo-2-Trifluoromethyl-4H-Quinazolin-3-yl)-Piperidine-2,6-Dione]",308 to 310 °C
14,"Cc1cccc2nc(-c3ccccc3)n(C3CCC(=O)NC3=O)c(=O)c12 (centres unmarked) [Example 6.16, 3-(5-Methyl-4-Oxo-2-Phenyl-4H-Quinazolin-3-yl)-Piperidine-2,6-Dione]",298 to 300 °C
15,"Cc1nc2cccc(N)c2c(=O)n1[C@]1(C)CCC(=O)NC1=O [Example 6.19, (R)-3-(5-Amino-2-Methyl-4-Oxoquinazolin-3(4H)-yl)-3-Methylpiperidine-2,6-Dione]",295 to 297 °C
16,"COCC(=O)Nc1cccc2nc(C)n(C3CCC(=O)NC3=O)c(=O)c12 (centres unmarked) [Example 6.20, N-[3-(2,6-Dioxo-Piperidin-3-yl)-2-Methyl-4-Oxo-3,4-Dihydro-Quinazolin-5-yl]-2-Methoxy-Acetamide]",282 to 284 °C
17,"CC(=O)Nc1cccc2nc(C)n(C3CCC(=O)NC3=O)c(=O)c12 (centres unmarked) [Example 6.21, N-[3-(2,6-Dioxo-Piperidin-3-yl)-2-Methyl-4-Oxo-3,4-Dihydro-Quinazolin-5-yl]-Acetamide]",320 to 322 °C
18,"CCCCCCC(=O)Nc1cccc2nc(C)n(C3CCC(=O)NC3=O)c(=O)c12 (centres unmarked) [Example 6.23, Heptanoic Acid [3-(2,6-Dioxo-Piperidin-3-yl)-2-Methyl-4-Oxo-3,4-Dihydro-Quinazolin-5-yl]-Amide]",230 to 232 °C
19,"CCOCC(=O)Nc1cccc2nc(C)n(C3CCC(=O)NC3=O)c(=O)c12 (centres unmarked) [Example 6.24, N-[3-(2,6-Dioxo-Piperidin-3-yl)-2-Methyl-4-Oxo-3,4-Dihydro-Quinazolin-5-yl]-2-Ethoxy-Acetamide]",291 to 293 °C

row,Compound,melting point
1,"Cc1nc2cccc(NC(=O)CCl)c2c(=O)n1C1CCC(=O)NC1=O (centres unmarked) [Example 6.26, 2-Chloro-N-[3-(2,6-Dioxo-Piperidin-3-yl)-2-Methyl-4-Oxo-3,4-Dihydro-Quinazolin-5-yl]-Acetamide]",275 to 277 °C
2,"CCOC(=O)Nc1cccc2nc(C)n(C3CCC(=O)NC3=O)c(=O)c12 (centres unmarked) [Example 6.27, [3-(2,6-Dioxo-Piperidin-3-yl)-2-Methyl-4-Oxo-3,4-Dihydro-Quinazolin-5-yl]-Carbamic Acid Ethyl Ester]",284 to 286 °C (dec.)
3,"Cc1nc2cccc(CNC(=O)OC(C)(C)C)c2c(=O)n1C1CCC(=O)NC1=O (centres unmarked) [Example 6.28, [3-(2,6-Dioxo-Piperidin-3-yl)-2-Methyl-4-Oxo-3,4-Dihydro-Quinazolin-5-ylmethyl]-Carbamic Acid Tert-Butyl Ester]",206 to 208 °C
4,"CCCC(=O)NCc1cccc2nc(C)n(C3CCC(=O)NC3=O)c(=O)c12 (centres unmarked) [Example 6.31, N-[3-(2,6-Dioxo-Piperidin-3-yl)-2-Methyl-4-Oxo-3,4-Dihydro-Quinazolin-5-ylmethyl]-Butyramide]",250 to 252 °C
5,"CCCCCCC(=O)NCc1cccc2nc(C)n(C3CCC(=O)NC3=O)c(=O)c12 (centres unmarked) [Example 6.32, Heptanoic Acid [3-(2,6-Dioxo-Piperidin-3-yl)-2-Methyl-4-Oxo-3,4-Dihydro-Quinazolin-5-ylmethyl]-Amide]",208 to 210 °C
6,"Cc1nc2cccc(CNC(=O)CC(C)(C)C)c2c(=O)n1C1CCC(=O)NC1=O (centres unmarked) [Example 6.33, N-[3-(2,6-Dioxo-Piperidin-3-yl)-2-Methyl-4-Oxo-3,4-Dihydro-Quinazolin-5-ylmethyl]-3,3-Dimethyl-Butyramide]",212 to 214 °C
7,"Cc1nc2cccc(CNC(=O)CN(C)C)c2c(=O)n1C1CCC(=O)NC1=O (centres unmarked) [Example 6.35, 2-Dimethylamino-N-[3-(2,6-Dioxo-Piperidin-3-yl)-2-Methyl-4-Oxo-3,4-Dihydro-Quinazolin-5-ylmethyl]-Acetamide]",275 °C (dec.)
8,"Cc1nc2cccc(NC(=O)c3cccc(Cl)c3)c2c(=O)n1C1CCC(=O)NC1=O (centres unmarked) [Example 6.36, 3-Chloro-N-[3-(2,6-Dioxo-Piperidin-3-yl)-2-Methyl-4-Oxo-3,4-Dihydro-Quinazolin-5-yl]-Benzamide]",326 to 328 °C
9,"Cc1nc2cccc(CNC(=O)Cc3ccccc3)c2c(=O)n1C1CCC(=O)NC1=O (centres unmarked) [Example 6.38, N-[3-(2,6-Dioxo-Piperidin-3-yl)-2-Methyl-4-Oxo-3,4-Dihydro-Quinazolin-5-ylmethyl]-2-Phenyl-Acetamide]",275 to 277 °C
10,"Cc1nc2cccc(CNC(=O)c3ccccn3)c2c(=O)n1C1CCC(=O)NC1=O (centres unmarked) [Example 6.39, Pyridine-2-Carboxylic Acid [3-(2,6-Dioxo-Piperidin-3-yl)-2-Methyl-4-Oxo-3,4-Dihydro-Quinazolin-5-ylmethyl]-Amide]",261 to 263 °C
11,"Cc1nc2cccc(CNC(=O)Cc3ccc(Cl)cc3)c2c(=O)n1C1CCC(=O)NC1=O (centres unmarked) [Example 6.40, 2-(4-Chloro-Phenyl)-N-[3-(2,6-Dioxo-Piperidin-3-yl)-2-Methyl-4-Oxo-3,4-Dihydro-Quinazolin-5-ylmethyl]-Acetamide]",285 °C (dec.)
12,"Cc1nc2cccc(CNC(=O)Cc3ccc(Cl)c(Cl)c3)c2c(=O)n1C1CCC(=O)NC1=O (centres unmarked) [Example 6.42, 2-(3,4-Dichloro-Phenyl)-N-[3-(2,6-Dioxo-Piperidin-3-yl)-2-Methyl-4-Oxo-3,4-Dihydro-Quinazolin-5-ylmethyl]-Acetamide]",262 to 264 °C
13,"Cc1ccc(CC(=O)NCc2cccc3nc(C)n(C4CCC(=O)NC4=O)c(=O)c23)cc1F (centres unmarked) [Example 6.44, N-[3-(2,6-Dioxo-Piperidin-3-yl)-2-Methyl-4-Oxo-3,4-Dihydro-Quinazolin-5-ylmethyl]-2-(3-Fluoro-4-Methyl-Phenyl)-Acetamide]",264 to 266 °C
14,"Cc1nc2cccc(CNC(=O)Cc3ccc(C(F)(F)F)cc3)c2c(=O)n1C1CCC(=O)NC1=O (centres unmarked) [Example 6.45, N-[3-(2,6-Dioxo-Piperidin-3-yl)-2-Methyl-4-Oxo-3,4-Dihydro-Quinazolin-5-ylmethyl]-2-(4-Trifluoromethyl-Phenyl)-Acetamide]",199 to 201 °C
15,"Cc1nc2cccc(CNC(=O)Nc3ccc(Cl)cc3)c2c(=O)n1C1CCC(=O)NC1=O (centres unmarked) [Example 6.46, 1-(4-Chloro-Phenyl)-3-[3-(2,6-Dioxo-Piperidin-3-yl)-2-Methyl-4-Oxo-3,4-Dihydro-Quinazolin-5-ylmethyl]-Urea]",255 to 257 °C
16,"Cc1ccc(NC(=O)NCc2cccc3nc(C)n(C4CCC(=O)NC4=O)c(=O)c23)cc1Cl (centres unmarked) [Example 6.47, 1-(3-Chloro-4-Methyl-Phenyl)-3-[3-(2,6-Dioxo-Piperidin-3-yl)-2-Methyl-4-Oxo-3,4-Dihydro-Quinazolin-5-ylmethyl]-Urea]",250 to 252 °C
17,"Cc1ccc(NC(=O)NCc2cccc3nc(C)n(C4CCC(=O)NC4=O)c(=O)c23)cc1C (centres unmarked) [Example 6.48, 1-(3,4-Dimethyl-Phenyl)-3-[3-(2,6-Dioxo-Piperidin-3-yl)-2-Methyl-4-Oxo-3,4-Dihydro-Quinazolin-5-ylmethyl]-Urea]",241 to 243 °C
18,"Cc1cccc(C(=O)NCc2cccc3nc(C)n(C4CCC(=O)NC4=O)c(=O)c23)c1 (centres unmarked) [Example 6.50, N-[3-(2,6-Dioxo-Piperidin-3-yl)-2-Methyl-4-Oxo-3,4-Dihydro-Quinazolin-5-ylmethyl]-3-Methyl-Benzamide]",263 to 265 °C
19,"Cc1nc2cccc(CNC(=O)c3ccc(Cl)cc3)c2c(=O)n1C1CCC(=O)NC1=O (centres unmarked) [Example 6.51, 4-Chloro-N-[3-(2,6-Dioxo-Piperidin-3-yl)-2-Methyl-4-Oxo-3,4-Dihydro-Quinazolin-5-ylmethyl]-Benzamide]",276 to 278 °C
